Measurements as given in US11311538B2, “Compositions and methods for targeting cancers” (YALE UNIVERSITY, priority 2018, dated 2022).

Columns and labels:
[1] = test system: shCTRL-expressing HEK293FT tumor xenografts; assay: Tumor growth delay assay, shCTRL HEK293FT xenografts; assay type: in vivo, mouse
Text: In vivo efficacy studies: HEK293FT xenografts. Female athymic nu/nu mice (Hsd:Athymic Nude-Foxnlnu, Envigo) were used for all in vivo xenograft studies. Mice were quarantined for at least 1 week before experimental manipulation. Tumors were formed using shRNA-expressing versions of the tumorigenic human embryonic kidney cell-derived line, HEK293FT. HEK293FT is a subline of HEK293 cells that has been transformed by expression of SV40 Large T-antigen. […], or shCTRL (non-targeted control) expressing HEK293FT cells were implanted subcutaneously (5×10^6 cells in 0.1 cc PBS) in the right flank of nude mice. Two efficacy studies were conducted. In one, mice were randomized into treatment and non-treated groups (10 mice/group) at day 3, with treatment initiation 4 days post implant. In a second independent in vivo efficacy study, mice were injected as above with 10 mice per group, and treatment was started only once the tumor volumes reached […]. For both studies, mice were visually observed daily and tumors were measured three times per week by calipers to determine tumor volume using the formula: Volume=L×W×W×0.532. Mice were fed with a grain based rodent diet containing Doxycycline at 200 mg/kg (Bioserv, Catalog #S3888). […] P-values were determined by ANOVA with repeated measures. […]

[2] = LC/MS analysis of intratumoral BMN-673; assay type: in vivo, mouse; conditions: 24 h after single gavage dose of 1 or 10 mg/kg, LC/MS (FIG. 4J)
Text: In vivo efficacy studies: HEK293FT xenografts. Female athymic nu/nu mice (Hsd:Athymic Nude-Foxnlnu, Envigo) were used for all in vivo xenograft studies. Mice were quarantined for at least 1 week before experimental manipulation. Tumors were formed using shRNA-expressing versions of the tumorigenic human embryonic kidney cell-derived line, HEK293FT. HEK293FT is a subline of HEK293 cells that has been transformed by expression of SV40 Large T-antigen. […], or shCTRL (non-targeted control) expressing HEK293FT cells were implanted subcutaneously (5×10^6 cells in 0.1 cc PBS) in the right flank of nude mice. Two efficacy studies were conducted. In one, mice were randomized into treatment and non-treated groups (10 mice/group) at day 3, with treatment initiation 4 days post implant. […] For both studies, mice were visually observed daily and tumors were measured three times per week by calipers to determine tumor volume using the formula: Volume=L×W×W×0.532. […] P-values were determined by ANOVA with repeated measures. […] The concentrations of BMN-673 in tumor samples were determined using liquid chromatography with tandem mass spectrometry (LC-MS/MS). […] BMN673 was monitored using the positive electrospray ionization mode at the most sensitive and specific mass transition, m/z 381.0>228.8. […]

[3] = test system: HEK293FT and YUNK1 cells; assay: Clonogenic survival assay, PARP inhibitors, knockdown or metabolite-treated cells; assay type: cell-based, human; conditions: knockdown of SDHB and FH or exogenous dimethyl-fumarate or succinate (FIGS. 4A-4B, 8E-8I)

- intra-tumoral BMN-673 levels, shSDHB vs shCTRL HEK293FT tumors [2]: no significant difference
Structure (SMILES): Cn1ncnc1[C@H]1c2n[nH]c(=O)c3cc(F)cc(c23)N[C@@H]1c1ccc(F)cc1 [BMN-673, BMN-673 (Talazoparib)]
- tumor growth vs vehicle, shCTRL tumors ([1]; treatment after tumors reached 95-150 mm^3, 0.5 mg/kg oral gavage once daily (FIG. 4I)): no growth inhibition
- tumor growth vs vehicle, shCTRL tumors ([1]; treatment beginning four days after implantation, 0.5 mg/kg oral gavage once daily (FIG. 4F)): no effect
- sensitivity to the PARP inhibitor, clonogenic survival [3]: dramatic sensitivity
